Measurements: PubChem BioAssay AID1259411 (Chemical Carcinogenesis Research Information System (CCRIS), 2018)
Activity calls are given as the source filed them. The rule behind the calls is not given here.

System: rodent carcinogenicity bioassays, tumor incidence
Assay: CCRIS carcinogenicity studies
Summary of the method: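 NCI-built, expert-reviewed records of carcinogenicity and related test outcomes (mutagenicity, tumor promotion/inhibition) compiled from published and report sources, historical span 1985-2011, not updated.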

CCN(Cc1cccc(S(=O)(=O)O)c1)c1ccc(C(=C2C=CC(=[N+](CC)Cc3cccc(S(=O)(=O)O)c3)C=C2)c2ccccc2S(=O)(=O)[O-])cc1
carcinogen call (Species: MOUSE, Strain/Sex: CD-1/FEMALE, Route: ORAL, Dose: 0, 0.5, 1.5, 5% IN DIET FOR 104 WK (STUDY DURATION: LIFETIME), Dose: 0, 0.5, 1.5, 5% IN DIET FOR 104 WK (STUDY DURATION: LIFETIME)): inactive; negative | carcinogen call (Species: MOUSE, Strain/Sex: CD-1/MALE, Route: ORAL, Dose: 0, 0.5, 1.5, 5% IN DIET FOR 104 WK (STUDY DURATION: LIFETIME), Dose: 0, 0.5, 1.5, 5% IN DIET FOR 104 WK (STUDY DURATION: LIFETIME)): inactive; negative | carcinogen call (Species: MOUSE, Strain/Sex: ICR/FEMALE, Route: DERMAL, Dose: 0, 1 MG IN 0.1 ML DISTILLED WATER 2/WK FOR A MEAN TOTAL DOSE OF 128.8 MG (STUDY DURATION: 18 MO)): inactive; negative | carcinogen call (Species: MOUSE, Strain/Sex: ICR/MALE, Route: DERMAL, Dose: 0, 1 MG IN 0.1 ML DISTILLED WATER 2/WK FOR A MEAN TOTAL DOSE OF 128.8 MG (STUDY DURATION: 18 MO)): inactive; negative | carcinogen call (Species: RAT, Route: SUBCUTANEOUS, Tumor Site: Type of Lesion: INJECTION SITE): active; positive | carcinogen call (Species: RAT, Strain/Sex: STRAIN-CD/FEMALE, Route: ORAL, Dose: 0, 0.1, 1, 2% IN DIET FOR 111 WK (PARENTS FED 0; 0.1; 1; 2% RESPECTIVELY IN DIET) (STUDY DURATION: LIFETIME), Dose: 0, 0.1, 1, 2% IN DIET FOR 111 WK (PARENTS FED 0; 0.1; 1; 2% RESPECTIVELY IN DIET) (STUDY DURATION: LIFETIME)): inactive; negative | carcinogen call (Species: RAT, Strain/Sex: STRAIN-CD/MALE, Route: ORAL, Dose: 0, 0.1, 1, 2% IN DIET FOR 116 WK (PARENTS FED 0; 0.1; 1; 2% RESPECTIVELY IN DIET) (STUDY DURATION: LIFETIME), Dose: 0, 0.1, 1, 2% IN DIET FOR 116 WK (PARENTS FED 0; 0.1; 1; 2% RESPECTIVELY IN DIET) (STUDY DURATION: LIFETIME)): inactive; negative

CN1CSC(=S)N(C)C1
carcinogen call (Species: Mouse, Strain/Sex: B6C3F1/Female (50/Group), Route: Oral, Dose: 0, 6, 22, 93 mg/kg in diet for 78 wk, study duration 78 wk, Dose: 0, 6, 22, 93 mg/kg in diet for 78 wk, study duration 78 wk): inactive; negative | carcinogen call (Species: Mouse, Strain/Sex: B6C3F1/Male (50/Group), Route: Oral, Dose: 0, 4, 16, 68 mg/kg in diet for 78 wk, study duration 78 wk, Dose: 0, 4, 16, 68 mg/kg in diet for 78 wk, study duration 78 wk): inactive; negative | carcinogen call (Species: Rat, Strain/Sex: Wistar/Female (50/Group), Route: Oral, Dose: 0, 0.35, 1.37, 5.66 mg/kg in diet for 2 yr, study duration 2 yr): inactive; negative | carcinogen call (Species: Rat, Strain/Sex: Wistar/Male (50/Group), Route: Oral, Dose: 0, 0.27, 1.08, 4.43 mg/kg in diet for 2 yr, study duration 2 yr): inactive; negative

Clc1cccc(-c2ccc(Cl)c(Cl)c2Cl)c1Cl
carcinogen call (Species: MOUSE, Strain/Sex: BALB/MALE, Route: ORAL, Dose: 300 MG/KG IN DIET FOR 6 OR 11 MO, Tumor Site: Type of Lesion: LIVER: HEPATOMA): active; positive | carcinogen call (Species: RAT, Strain/Sex: F344/FEMALE, Route: ORAL, Dose: 0, 25, 50, 100 PPM IN DIET FOR 104-105 WK (STUDY DURATION: 104-105 WK), Dose: 0, 25, 50, 100 PPM IN DIET FOR 104-105 WK (STUDY DURATION: 104-105 WK), Tumor Site: Type of Lesion: LIVER: ADENOMA, STOMACH: ADENOMA, ADENOCARCINOMA): equivocal | carcinogen call (Species: RAT, Strain/Sex: F344/MALE, Route: ORAL, Dose: 0, 25, 50, 100 PPM IN DIET FOR 104-105 WK (STUDY DURATION: 104-105 WK), Dose: 0, 25, 50, 100 PPM IN DIET FOR 104-105 WK (STUDY DURATION: 104-105 WK), Tumor Site: Type of Lesion: LIVER: HEPATOCELLULAR ADENOMA, HEPATOCELLULAR CARCINOMA, GASTROINTESTINAL SYSTEM: ADENOCARCINOMA OR CARCINOMA): equivocal | carcinogen call (Species: RAT, Strain/Sex: SPRAGUE-DAWLEY/FEMALE, Route: ORAL, Dose: 0, 25, 50, 100 PPM IN DIET FOR THE DURATION OF STUDY (STUDY DURATION: 24 MO), Dose: 0, 25, 50, 100 PPM IN DIET FOR THE DURATION OF STUDY (STUDY DURATION: 24 MO), Tumor Site: Type of Lesion: LIVER: TUMOR): active; positive | carcinogen call (Species: RAT, Strain/Sex: SPRAGUE-DAWLEY/MALE, Route: ORAL, Dose: 0, 25, 50, 100 PPM IN DIET FOR THE DURATION OF STUDY (STUDY DURATION: 24 MO), Dose: 0, 25, 50, 100 PPM IN DIET FOR THE DURATION OF STUDY (STUDY DURATION: 24 MO), Tumor Site: Type of Lesion: THYROID GLAND: ADENOMA OR CARCINOMA): active; positive
